The test system of one test is MRSA USA300. As to the kind of experiment: In vitro MRSA internalization in human keratinocytes. Type of test: cell-based, MRSA USA300 in primary human keratinocytes. The procedure:
For all internalization assays, MRSA USA300 strain was used. In vitro pathogen internalization: Primary human keratinocytes were seeded at 5×10^4 in triplicates and allowed to adhere overnight. The following day, they were inoculated with MRSA USA300 conjugated to a pH sensitive dye (pHrodo iFL STP ester, Life Technologies) at 1×10^6 CFU/ml for 1 hr in presence or absence of 1 mM MβCD, prior to washing with PBS. They were then either subject to live cell imaging or washed with lysostaphin for 1 hr (in order to kill any extracellular bacteria), lysed in hypotonic solution and seeded onto blood agar plates in serial dilutions in order to determine relative CFU counts. Ex vivo human skin: Human skin specimens from reduction surgery were obtained and wounded. Briefly, using a biopsy punch 4-mm acute wounds were made in the skin specimens (n=4 per treatment), and either pre-treated in presence or absence of 2 mM MβCD, followed by inoculation with 10 ul of MRSA 10^8 CFU/ml for 24 hrs. Skin was then washed with PBS, incubated with lysostaphin for Ihr in order to kill any extracellular bacteria, lysed with hypotonic solution and subsequent lysate seeded onto blood agar plates in serial dilutions. […]

In test [1] the test system is 5-mm round excisional dorsal wounds of db/db mice. In words: Splinted excisional wound healing in db/db mice treated with hydrogel scaffolds. It is filed as in vivo. The settings on record: FIG. 10. The procedure:
All animal care and use procedures were approved by the University of Miami Institutional Animal Care and Use Committee (IACUC #19-097). Under anesthesia, 12×7-weeks of age female db/db mice had their dorsal skin hair clipped, depilated and their fasting blood glucose level measured for 3 consecutive days, to validate hyperglycemia (>300 mg/dL was deemed as hyperglycemic). Subsequently, mice's dorsal skin was cleaned with antiseptic solution and four 5-mm round excisional wounds were made, two on each side of the dorsal midline (n=8 wounds per treatment). Dorsal wounds were treated with cylindrical hydrogel scaffolds of 8 mm×2 mm for either 7 or 16 days. Same hydrogel scaffold fabrication procedure was employed (as previously described) and with the same treatment and control formulations as the ex vivo human skin wound models. Scaffolds were fixed on top of the wounds with 14-mm square splints containing a 10 mm circular central opening. Cyanoacrylate glue was used to secure the splints just long enough for 4 non-continuous sutures to adhere the […] to the wound and prevent wound contraction. […] Diabetic mice wounds' closure rate was assessed by histologically analyzing re-epithelialization and epidermal thickness through H&E staining with an Olympus VS120 microscope (Olympus, Tokyo, JPN) and Image J software (NIH, MD, USA). […]

The next test concerns VEGF. As to the kind of experiment: VEGF ELISA on snap frozen mouse wounds. The settings on record: same mouse wounds, FIG. 14. It is filed as in vivo, mice. The procedure: Amount of VEGF in snap frozen mouse wounds was analyzed using VEGF ELISA as per manufacturer's instructions. Up to 8 wounds were utilized per condition in duplicates and amount of VEGF quantified using internal standards provided by the kit.
ELISA was used to measure levels of VEGF from the same wounds in order to validate that the upregulation at the mRNA level coincides with increased VEGF protein level.
In general terms: An ELISA detects its analyte on a solid surface through an enzyme-linked reagent.

Consider methyl-β-cyclodextrin [MβCD], for which, in the test on MRSA USA300 (Cav1 overexpressing and Cav1 knockout human keratinocytes, cell lysate on blood agar plates), the “CFU counts of internalized bacteria” value was “lowered the CFU counts”. For the same substance, in the test on MRSA USA300 (treatment administered after MRSA infection, keratinocytes), the “intracellular MRSA” value is “expelled a majority of intracellular MRSA”.
With platelet derived growth factor [PDGF], the “wound closure at the conclusion of the experiment” value in test [1] is “not fully closed”.
For the substance hydroxypropyl-β-cyclodextrin [HβCD], in the test on VEGF, the “levels of VEGF” value was “increased levels of VEGF”.

Source of the values: patent US20250367164A1, “THERAPEUTIC COMPOSITIONS FOR SKIN DISORDERS AND WOUND REPAIR” (UNIVERSITY OF MIAMI, priority 2022, published 2025).
